Laboratory results taken from ChEMBL document CHEMBL1124142, “N6-[2-(3,5-dimethoxyphenyl)-2-(2-methylphenyl)ethyl]adenosine and its uronamide derivatives. Novel adenosine agonists with both high affinity and high selectivity for the adenosine A2 receptor” (J Med Chem, 1988).

Legend:
Adenosine A2 receptor [1] = molecular target: T1, Adenosine A2 receptor (Rattus norvegicus, UniProt P29276+P30543)
Adenosine receptor A1 = molecular target: T2, Adenosine receptor A1 (Rattus norvegicus, UniProt P25099); test: biochemical
T2 sequence (P25099 whole entry): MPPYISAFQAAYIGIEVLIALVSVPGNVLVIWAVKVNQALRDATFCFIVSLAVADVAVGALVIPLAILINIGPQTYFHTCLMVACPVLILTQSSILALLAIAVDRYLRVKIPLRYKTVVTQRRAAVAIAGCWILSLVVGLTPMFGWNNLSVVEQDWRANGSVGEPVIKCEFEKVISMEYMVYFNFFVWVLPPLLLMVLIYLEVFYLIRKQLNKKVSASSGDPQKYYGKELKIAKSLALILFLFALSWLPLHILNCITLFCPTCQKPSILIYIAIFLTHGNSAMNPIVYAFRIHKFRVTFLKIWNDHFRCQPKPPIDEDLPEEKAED
Description: Binding affinity at adenosine A1 receptor from rat brain membranes by [3H]N6-cyclohexyladenosine displacement.

Adenosine A2 receptor [2] = molecular target: T1, Adenosine A2 receptor; test: Binding affinity at adenosine A2 receptor from rat striatal membranes by [3H]NECA displacement.

Ki (Adenosine A2 receptor [1]) [nM]	Ki (Adenosine receptor A1) [nM]	Ki (Adenosine A2 receptor [2]) [nM]	Structure (SMILES)
18.8	9.3		Cc1cccc(C(CNc2ncnc3c2ncn3C2O[C@H](CO)[C@@H](O)[C@H]2O)c2cccc(C)c2)c1 (some centres not stated)
	1010	43	CNC(=O)[C@H]1OC(n2cnc3c(NCC(c4cc(OC)cc(OC)c4)c4ccccc4C)ncnc32)[C@H](O)[C@@H]1O (some centres not stated)
	207	5.6	CCNC(=O)[C@H]1OC(n2cnc3c(NCC(c4cc(OC)cc(OC)c4)c4ccccc4C)ncnc32)[C@H](O)[C@@H]1O (some centres not stated)
6	2.6		OC[C@H]1OC(n2cnc3c(NCC(c4cccc(Cl)c4)c4cccc(Cl)c4)ncnc32)[C@H](O)[C@@H]1O (some centres not stated)
	18.4		OC[C@H]1OC(n2cnc3c(NCC(c4ccccc4)c4cc(Cl)cc(Cl)c4)ncnc32)[C@H](O)[C@@H]1O (some centres not stated)
19.5	140		COc1cc(OC)cc(C(CNc2ncnc3c2ncn3C2O[C@H](CO)[C@@H](O)[C@H]2O)c2c(C)cccc2C)c1 (some centres not stated)
19	61		OC[C@H]1OC(n2cnc3c(NCC(c4ccccc4)c4c(Cl)cccc4Cl)ncnc32)[C@H](O)[C@@H]1O (some centres not stated)
6.1	30.2		COc1cc(OC)cc(C(CNc2ncnc3c2ncn3C2O[C@H](CO)[C@@H](O)[C@H]2O)c2ccccc2)c1 (some centres not stated)
62	229		Cc1cccc(C)c1C(CNc1ncnc2c1ncn2C1O[C@H](CO)[C@@H](O)[C@H]1O)c1ccccc1 (some centres not stated)
116			Nc1nc(Nc2ccccc2)nc2c1ncn2[C@@H]1O[C@H](CO)[C@@H](O)[C@H]1O

Structure (SMILES)	Ki (Adenosine A2 receptor [1]) [nM]	Ki (Adenosine receptor A1) [nM]	Ki (Adenosine A2 receptor [2]) [nM]
OC[C@H]1O[C@@H](n2cnc3c(NCc4cccc5ccccc45)ncnc32)[C@H](O)[C@@H]1O	9.4		
COc1cc(OC)cc(C(CNc2ncnc3c2ncn3[C@@H]2O[C@H](CO)[C@@H](O)[C@H]2O)c2ccccc2C)c1 (single isomer, unassigned)	3.1	118	
COc1cc(OC)cc(C(CNc2ncnc3c2ncn3C2O[C@H](C(=O)NC3CC3)[C@@H](O)[C@H]2O)c2ccccc2C)c1 (some centres not stated)		232	8.7
COc1cc(OC)cc(C(CNc2ncnc3c2ncn3[C@@H]2O[C@H](CO)[C@@H](O)[C@H]2O)c2ccccc2C)c1 (stereo in doubt; 16)	4.4	142	
COc1cc(OC)cc(C(CNc2ncnc3c2ncn3[C@@H]2O[C@H](CO)[C@@H](O)[C@H]2O)c2ccccc2C)c1 (single isomer, unassigned; (+))	6.2	188	
